Laboratory results as given in patent US20060063736A1, “Compositions and methods for inhibiting mucin-type O-linked glycosylation” (priority 2004, published 2006).

Columns and labels:
mppGalNAcT-2 = molecular target: T1, mppGalNAcT-2 (Mus musculus, UniProt Q6PB93); test: ELLA for ppGalNAcTs, mppGalNAcT-2; format: biochemical, murine; conditions: 20 μM UDP-GalNAc, 50 μM EA2 peptide 4
T1 construct: plasmids encoding truncated secreted ppGalNAcTs-1 to −5, -7, -10 and -11; made in house; host or cells: COS-7
T1 sequence (Q6PB93 25-570 limits assumed): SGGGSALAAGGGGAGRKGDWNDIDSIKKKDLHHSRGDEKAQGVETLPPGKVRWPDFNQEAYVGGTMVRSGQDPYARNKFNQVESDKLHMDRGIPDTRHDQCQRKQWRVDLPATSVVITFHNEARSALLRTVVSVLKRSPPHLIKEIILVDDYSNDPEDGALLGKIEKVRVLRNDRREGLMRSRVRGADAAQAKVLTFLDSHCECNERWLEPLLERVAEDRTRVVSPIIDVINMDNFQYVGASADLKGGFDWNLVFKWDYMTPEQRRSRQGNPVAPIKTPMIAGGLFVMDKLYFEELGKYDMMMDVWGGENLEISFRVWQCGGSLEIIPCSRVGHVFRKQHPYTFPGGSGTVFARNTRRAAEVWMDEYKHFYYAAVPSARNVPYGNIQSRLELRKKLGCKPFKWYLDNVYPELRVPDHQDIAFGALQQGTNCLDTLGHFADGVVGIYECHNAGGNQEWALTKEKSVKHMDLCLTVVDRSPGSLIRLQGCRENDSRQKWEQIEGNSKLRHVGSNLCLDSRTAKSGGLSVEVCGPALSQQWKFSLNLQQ
Experimental: COS-7 cells were transiently transfected with plasmids encoding truncated secreted ppGalNAcTs-1 to −5, -7, -10 and -11 as previously described. Hagen et al. (1997) J. Biol. Chem. 272:13843-13848. The crude conditioned medium was used as the enzyme source.
Standard reaction conditions for ppGalNAcT assays were as follows. The reaction mixture contained the following components in a final volume of 25 μL: 10 mM MnCl2, 40 mM sodium cacodylate, 40 mM β-mercaptoethanol, 0.1% Triton X-100, pH 6.5, 5 μL of conditioned media, and various concentrations of EA2 peptide 4, UDP-GalNAc and inhibitor. All uridine-based compounds were dissolved in dimethyl sulfoxide (DMSO). […] Reaction rates were linear over the period monitored (20-30 min).
96-Well NeutrAvidin-coated plates were prewashed 3 times with 200 μL of wash buffer (25 mM Tris, 150 mM NaCl, 0.1% bovine serum albumin (BSA) (w/v), and 0.05% Tween (v/v), pH 7.2). […] After 3 washes with 200 μL of PBS, bound HPA-HRP was quantified by the addition of 100 μL of TMB peroxide solution. […] HRP activity was terminated by the addition of 50 μL of 2 N H2SO4 and the resulting solution was analyzed at 450 nm using a UV/Vis microtiter plate reader. The amount of product generated by the ppGalNAcT was extrapolated from absorbance values using an equation fit to the standard curve derived from Origin 6.1 software.

rppGalNAcT-5 = molecular target: T2, rppGalNAcT-5 (Rattus norvegicus, UniProt O88422); test: Radiolabel capture assay, rppGalNAcT-5; format: biochemical; conditions: α-FLAG purified enzyme
T2 construct: plasmids encoding truncated secreted ppGalNAcTs-1 to −5, -7, -10 and -11; FLAG; made in house; host or cells: COS-7
T2 sequence (O88422 36-930 limits assumed): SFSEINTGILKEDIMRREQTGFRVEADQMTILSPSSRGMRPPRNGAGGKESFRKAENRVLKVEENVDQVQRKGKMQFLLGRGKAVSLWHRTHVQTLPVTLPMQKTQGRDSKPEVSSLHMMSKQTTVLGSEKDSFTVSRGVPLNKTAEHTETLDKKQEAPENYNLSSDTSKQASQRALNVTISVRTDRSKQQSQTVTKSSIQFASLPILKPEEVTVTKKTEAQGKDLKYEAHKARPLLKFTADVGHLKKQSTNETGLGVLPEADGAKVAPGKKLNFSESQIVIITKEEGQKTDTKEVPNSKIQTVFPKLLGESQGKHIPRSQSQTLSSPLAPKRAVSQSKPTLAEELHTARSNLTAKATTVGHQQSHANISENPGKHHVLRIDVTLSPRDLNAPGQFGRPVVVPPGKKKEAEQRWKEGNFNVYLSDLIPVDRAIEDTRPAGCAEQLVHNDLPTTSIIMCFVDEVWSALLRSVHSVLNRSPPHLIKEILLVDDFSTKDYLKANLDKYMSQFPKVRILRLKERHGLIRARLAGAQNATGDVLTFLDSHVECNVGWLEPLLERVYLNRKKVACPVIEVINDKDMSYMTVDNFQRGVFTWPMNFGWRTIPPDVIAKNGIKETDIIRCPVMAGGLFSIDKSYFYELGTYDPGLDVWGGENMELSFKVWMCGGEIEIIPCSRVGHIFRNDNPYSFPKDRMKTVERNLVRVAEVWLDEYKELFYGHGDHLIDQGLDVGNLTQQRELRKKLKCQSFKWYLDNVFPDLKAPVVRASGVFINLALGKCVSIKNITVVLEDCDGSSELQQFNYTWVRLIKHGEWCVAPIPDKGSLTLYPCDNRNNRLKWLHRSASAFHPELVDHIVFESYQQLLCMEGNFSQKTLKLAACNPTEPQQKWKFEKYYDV
Experimental: Radiolabel capture assays using ^14C-labeled UDP-GalNAc were performed as previously described with various concentrations of 1-68A or 2-68A in 2% DMSO. Ten Hagen et al. (2001) J. Biol. Chem. 276:17395-17404.
Table 1. IC50 values for 1-68A and 2-68A with ppGalNAcTs-1 to −5, -7, -10, -11, β1-4GalT and α1-3GalT. The requirement of glycopeptides as substrates for ppGalNAcT-7 and -10 precluded the use of the ELLA, as both the substrate and product bind HPA-HRP. Thus, the radiolabel capture assay was employed to measure the IC50 values of 1-68A and 2-68A with ppGalNAcT-7 and -10 using MUC5AC (GTTPSPVPTTSTTSAP; SEQ ID NO:15) glycopeptide, previously shown to be substrate for both enzymes. Ten Hagen et al. (1999) J. Biol. Chem. 274:27867-27874; and Ten Hagen et al. (2001) J. Biol. Chem. 276:17395-17404. IC50 values of 1-68A and 2-68A with ppGalNAcT-5 were performed with α-FLAG purified enzyme and radiolabel capture assay, due to low activity and stability of the crude enzyme. m=murine, r=rattus.

Compound	IC50 (mppGalNAcT-2)	IC50 (rppGalNAcT-5)
O=c1ccn([C@@H]2O[C@H](CON=Cc3ccc(O)c(O)c3O)[C@@H](O)[C@H]2O)c(=O)[nH]1 [1-68A]	15 ± 1 µM	20 ± 2 µM
O=C(CON=Cc1ccc(O)c(O)c1O)NC[C@H]1O[C@@H](n2ccc(=O)[nH]c2=O)[C@H](O)[C@@H]1O [2-68A]	18 ± 2 µM	26 ± 9 µM
